Assay results: US10829473B2, “Modulators of the cystic fibrosis transmembrane conductance regulator protein and methods of use” (AbbVie Overseas S.Á.R.L., priority 2017, dated 2020)
pEC50: −log10 of the molar value. Read-outs that look alike come from different tables or passages of the source. Blank lines part the entries; values can stand above or below the compound they belong to.

Molecular target: T1, F508delCFTR (Homo sapiens, UniProt P13569, DEL508-508)
T1 construct: expressed in transfected cells; host or cells: CFBE41o- human lung derived epithelial cells (CFBE41o-F508delCFTR-HRP), doxycycline-inducible
T1 sequence (P13569 with tags, fused parts or gaps DEL508-508): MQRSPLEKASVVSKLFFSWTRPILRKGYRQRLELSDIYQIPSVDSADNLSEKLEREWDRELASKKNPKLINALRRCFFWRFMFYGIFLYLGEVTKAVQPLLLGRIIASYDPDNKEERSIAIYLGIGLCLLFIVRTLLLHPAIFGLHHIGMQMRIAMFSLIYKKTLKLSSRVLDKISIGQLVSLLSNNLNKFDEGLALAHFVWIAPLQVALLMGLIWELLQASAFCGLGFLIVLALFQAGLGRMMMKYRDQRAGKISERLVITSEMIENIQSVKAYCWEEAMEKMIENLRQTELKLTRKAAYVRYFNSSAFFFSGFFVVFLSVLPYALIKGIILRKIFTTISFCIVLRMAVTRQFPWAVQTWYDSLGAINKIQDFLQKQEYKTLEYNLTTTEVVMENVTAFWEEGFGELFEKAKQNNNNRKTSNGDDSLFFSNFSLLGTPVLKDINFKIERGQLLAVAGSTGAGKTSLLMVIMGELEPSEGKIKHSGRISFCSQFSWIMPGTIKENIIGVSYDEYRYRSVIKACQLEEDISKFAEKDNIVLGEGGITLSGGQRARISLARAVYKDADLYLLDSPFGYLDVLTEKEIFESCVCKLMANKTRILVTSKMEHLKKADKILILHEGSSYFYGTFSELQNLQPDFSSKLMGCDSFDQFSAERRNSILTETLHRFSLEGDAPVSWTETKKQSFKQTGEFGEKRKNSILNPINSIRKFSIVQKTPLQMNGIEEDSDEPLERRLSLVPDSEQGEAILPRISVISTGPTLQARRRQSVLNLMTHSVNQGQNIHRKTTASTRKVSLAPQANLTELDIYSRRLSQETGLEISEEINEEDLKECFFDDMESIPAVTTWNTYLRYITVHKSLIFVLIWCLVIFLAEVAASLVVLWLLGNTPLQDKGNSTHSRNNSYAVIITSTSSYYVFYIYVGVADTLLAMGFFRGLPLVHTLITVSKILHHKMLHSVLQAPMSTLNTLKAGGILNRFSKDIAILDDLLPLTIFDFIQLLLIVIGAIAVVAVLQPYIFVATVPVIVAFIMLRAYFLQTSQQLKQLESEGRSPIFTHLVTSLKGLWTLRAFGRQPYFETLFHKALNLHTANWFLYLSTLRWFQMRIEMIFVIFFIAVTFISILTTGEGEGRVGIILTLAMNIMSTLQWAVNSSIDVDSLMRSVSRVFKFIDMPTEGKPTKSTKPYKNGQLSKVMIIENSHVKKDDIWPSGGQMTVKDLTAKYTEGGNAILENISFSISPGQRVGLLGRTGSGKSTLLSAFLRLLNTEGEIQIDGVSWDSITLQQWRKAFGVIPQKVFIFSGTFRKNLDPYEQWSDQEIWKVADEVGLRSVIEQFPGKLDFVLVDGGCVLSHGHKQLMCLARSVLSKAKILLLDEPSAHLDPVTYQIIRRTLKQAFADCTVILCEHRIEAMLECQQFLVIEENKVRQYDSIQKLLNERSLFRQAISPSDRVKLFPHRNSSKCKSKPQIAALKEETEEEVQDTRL
Assay: Cell Surface Expression-Horse Radish Peroxidase (CSE-HRP) Assay;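 for EC50 (with co-corrector): co-corrector chromenyl benzoic acid corrector at 2 or 3 µM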;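 for Maximum % activity (without co-corrector): % of on-plate positive control chromenyl benzoic acid corrector at 2 or 3 µM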
Assay type: cell-based
Details: for Maximum % activity (with co-corrector) / Emax: maximum at any tested concentration; for Emax: read-out: Maximum % activity (without co-corrector)
How it was run: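 Corrector compounds were given as 8-point 3-fold series from 20 or 30 μM, with or without a 2 μM co-corrector, for 18-24 h at 33 °C. Surface HRP was read by luminol luminescence as % of positive control; variable-Hill-slope sigmoidal fitting gave EC50 from triplicate plates.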

[1] = test compound alone, without co-corrector, read-out: EC50 (without co-corrector)
[2] = with co-corrector, read-out: EC50 (with co-corrector)
[3] = test compound with co-corrector
[4] = test compound with co-corrector, read-out: EC50 (with co-corrector)
[5] = test compound without co-corrector
[6] = test compound without co-corrector, read-out: EC50 (without co-corrector)

SMILES: O=C(NS(=O)(=O)Cc1ccccc1)C1(c2ccccc2Cl)CC1 [Example III-113, 1-(2-chlorophenyl)-N-(phenylmethanesulfonyl)cyclopropane-1-carboxamide]
pEC50 [1]: < 5.00 | Maximum % activity (with co-corrector) (with co-corrector): ++ (≥150 and <350) | pEC50 [2]: 5.00 to 5.52 | Emax (without co-corrector): < 50%

SMILES: CC(C)Oc1ncccc1C1(C(=O)NS(=O)(=O)c2cccc3ncccc23)CC1 [GII-3, 1-{2-[(propan-2-yl)oxy]pyridin-3-yl}-N-(quinoline-5-sulfonyl)cyclopropane-1-carboxamide]
Maximum % activity (with co-corrector) [3]: ++ (≥150 and <350) | pEC50 [4]: 5.00 to 5.52 | Emax [5]: 50 to 150% | pEC50 [6]: 5.00 to 5.52

SMILES: O=C(CCc1ccccc1)N1CCC(S(=O)(=O)NC(=O)C2(c3ccc(Cl)cc3Cl)CC2)CC1 [Example III-79, 1-(2,4-dichlorophenyl)-N-[1-(3-phenylpropanoyl)piperidine-4-sulfonyl]cyclopropane-1-carboxamide]
pEC50 [1]: < 5.00 | Maximum % activity (with co-corrector) (with co-corrector): + (<150) | pEC50 [2]: 5.00 to 5.52 | Emax (without co-corrector): < 50%

SMILES: COc1ccc(C2CC2)c(C)c1C1(C(=O)NS(=O)(=O)c2cccc3[nH]ncc23)CC1 [II-78]
pEC50 [1]: > 5.52 | Maximum % activity (with co-corrector) (with co-corrector): +++ (≥350) | pEC50 [2]: > 5.52 | Emax (without co-corrector): > 150%

SMILES: CN1CCN(c2ncc(C3CC3)cc2C2(C(=O)NS(=O)(=O)c3cccc4[nH]ccc34)CC2)CC1 [GIII-36]
Maximum % activity (with co-corrector) [3]: + (<150) | pEC50 [4]: < 5.00 | Emax [5]: < 50% | pEC50 [6]: < 5.00

SMILES: O=C(NS(=O)(=O)c1cccc2ncccc12)C1(c2cc(Cl)cnc2F)CC1 [GIII-34]
Maximum % activity (with co-corrector) [3]: + (<150) | pEC50 [4]: < 5.00 | Emax [5]: < 50% | pEC50 [6]: < 5.00

SMILES: CC1(C)CC1(C(=O)NS(=O)(=O)c1ccccc1)c1ccccc1 (stereo not drawn) [Example III-61, N-(benzenesulfonyl)-2,2-dimethyl-1-phenylcyclopropane-1-carboxamide]
pEC50 [1]: < 5.00 | Maximum % activity (with co-corrector) (with co-corrector): ++ (≥150 and <350) | pEC50 [2]: 5.00 to 5.52 | Emax (without co-corrector): < 50%

SMILES: CN1CCN(c2ncc(C3CCC3)cc2C2(C(=O)NS(=O)(=O)c3cccc4ncccc34)CC2)CC1 [GIII-31]
Maximum % activity (with co-corrector) [3]: + (<150) | pEC50 [4]: < 5.00 | Emax [5]: < 50% | pEC50 [6]: < 5.00

SMILES: CCc1ccc(OC(C)C)c(C2(C(=O)NS(=O)(=O)c3cccc4ncccc34)CC2)n1 [Example GI-55, 1-{6-ethyl-3-[(propan-2-yl)oxy]pyridin-2-yl}-N-(quinoline-5-sulfonyl)cyclopropane-1-carboxamide]
Maximum % activity (with co-corrector) [3]: +++ (≥350) | pEC50 [4]: > 5.52 | Emax [5]: > 150% | pEC50 [6]: 5.00 to 5.52

SMILES: O=C(NS(=O)(=O)C1CCNCC1)C1(c2ccc(Cl)cc2Cl)CC1 [Example III-77, 1-(2.4-dichlorophcnyl)-N-(piperidine-4-sulfonyl)cyclopropane-1-carboxamide]
pEC50 [1]: < 5.00 | Maximum % activity (with co-corrector) (with co-corrector): + (<150) | pEC50 [2]: < 5.00 | Emax (without co-corrector): < 50%

SMILES: O=C(NS(=O)(=O)c1ccccc1Cl)C1(c2cccc(Cl)c2)CC1 [Example III-23, N-(2-chlorobenzene-1-sulfonyl)-1-(3-chlorophenyl)cyclopropane-1-carboxamide]
pEC50 [1]: 5.00 to 5.52 | Maximum % activity (with co-corrector) (with co-corrector): +++ (≥350) | pEC50 [2]: 5.00 to 5.52 | Emax (without co-corrector): 50 to 150%

SMILES: Cc1ccc(C)c(C2(C(=O)NS(=O)(=O)c3cccc4nc(N)ccc34)CC2)c1 [Example I-81, N-(2-aminoquinoline-5-sulfonyl)-1-(2,5-dimethylphenyl)cyclopropane-1-carboxamide]
pEC50 [1]: > 5.52 | Maximum % activity (with co-corrector) (with co-corrector): +++ (≥350) | pEC50 [2]: > 5.52 | Emax (without co-corrector): > 150%

SMILES: O=C(NS(=O)(=O)c1cc([N+](=O)[O-])ccc1Cl)C1(c2cccc(Cl)c2)CC1 [Example III-55, N-(2-chloro-5-nitrobenzene-1-sulfonyl)-1-(3-chlorophenyl)cyclopropane-1-carboxamide]
pEC50 [1]: < 5.00 | Maximum % activity (with co-corrector) (with co-corrector): + (<150) | pEC50 [2]: < 5.00 | Emax (without co-corrector): < 50%

SMILES: O=C(NS(=O)(=O)c1ccc2ccccc2c1)C1(c2ccc(Cl)cc2Cl)CC1 [Example III-27, 1-(2,4-dichlorophenyl)-N-(naphthalene-2-sulfonyl)cyclopropane-1-carboxamide]
pEC50 [1]: < 5.00 | Maximum % activity (with co-corrector) (with co-corrector): + (<150) | pEC50 [2]: < 5.00 | Emax (without co-corrector): < 50%

SMILES: O=C(NS(=O)(=O)c1ccccc1)C1(c2cccc(Br)c2)CC1 [Example III-71, N-(benzenesulfonyl)-1-(3-bromophenyl)cyclopropane-1-carboxamide]
pEC50 [1]: 5.00 to 5.52 | Maximum % activity (with co-corrector) (with co-corrector): +++ (≥350) | pEC50 [2]: 5.00 to 5.52 | Emax (without co-corrector): 50 to 150%

SMILES: O=C(NS(=O)(=O)c1ccc(OC(F)(F)F)cc1)C1(c2ccc(Cl)cc2Cl)CC1 [Example III-14, 1-(2,4-dichlorophenyl)-N-[4-(trifluoromethoxy)benzene-1-sulfonyl]cyclopropane-1-carboxamide]
pEC50 [1]: < 5.00 | Maximum % activity (with co-corrector) (with co-corrector): + (<150) | pEC50 [2]: < 5.00 | Emax (without co-corrector): < 50%

SMILES: CCOC(C)(C)c1ccc(OC)c(C2(C(=O)NS(=O)(=O)c3cccc4ncccc34)CC2)c1 [II-96]
pEC50 [1]: > 5.52 | Maximum % activity (with co-corrector) (with co-corrector): +++ (≥350) | pEC50 [2]: > 5.52 | Emax (without co-corrector): > 150%

SMILES: COc1ccc(C)cc1C1(C(=O)NS(=O)(=O)c2cccc3nc(C)ccc23)CC1 [Example I-64, 1-(2-methoxy-5-methylphenyl)-N-(2-methylquinoline-5-sulfonyl)cyclopropane-1-carboxamide]
pEC50 [1]: > 5.52 | Maximum % activity (with co-corrector) (with co-corrector): +++ (≥350) | pEC50 [2]: > 5.52 | Emax (without co-corrector): > 150%

SMILES: CCOC(C)(C)c1ccc(OC(F)F)c(C2(C(=O)NS(=O)(=O)c3cccc4nc(C)ccc34)CC2)c1 [II-107]
pEC50 [1]: > 5.52 | Maximum % activity (with co-corrector) (with co-corrector): +++ (≥350) | pEC50 [2]: > 5.52 | Emax (without co-corrector): > 150%

Next, values leading:

pEC50 [1]: > 5.52 | Maximum % activity (with co-corrector) (with co-corrector): +++ (≥350) | pEC50 [2]: > 5.52 | Emax (without co-corrector): > 150%
SMILES: COc1ccc(C(C)(C)C)cc1C1(C(=O)NS(=O)(=O)c2cccc3c2CCCN3)CC1 [Example I-39, 1-(5-tert-butyl-2-methoxyphenyl)-N-(1,2,3,4-tetrahydroquinoline-5-sulfonyl)cyclopropane-1-carboxamide]

pEC50 [1]: > 5.52 | Maximum % activity (with co-corrector) (with co-corrector): +++ (≥350) | pEC50 [2]: > 5.52 | Emax (without co-corrector): > 150%
SMILES: COc1ccc(C2CCC2)cc1C1(C(=O)NS(=O)(=O)c2cccc3nc(C)ccc23)CC1 [Example I-63, 1-(5-cyclobutyl-2-methoxyphenyl)-N-(2-methylquinoline-5-sulfonyl)cyclopropane-1-carboxamide]

Maximum % activity (with co-corrector) [3]: + (<150) | pEC50 [4]: < 5.00 | Emax [5]: < 50% | pEC50 [6]: < 5.00
SMILES: COc1ncc(C2(C(=O)NS(=O)(=O)c3cccc4c3CCCN4)CC2)c(OC)n1 [GIII-12]

pEC50 [1]: 5.00 to 5.52 | Maximum % activity (with co-corrector) (with co-corrector): +++ (≥350) | pEC50 [2]: > 5.52 | Emax (without co-corrector): > 150%
SMILES: COc1nc2ccccc2cc1C1(C(=O)NS(=O)(=O)c2cccc3ncccc23)CC1 [Example I-76, 1-(2-methoxyquinolin-3-yl)-N-(quinoline-5-sulfonyl)cyclopropane-1-carboxamide]

pEC50 [1]: 5.00 to 5.52 | Maximum % activity (with co-corrector) (with co-corrector): +++ (≥350) | pEC50 [2]: > 5.52 | Emax (without co-corrector): > 150%
SMILES: Cc1ccc(C)c(C2(C(=O)NS(=O)(=O)c3cccc4[nH]ncc34)CC2)c1 [Example III-127, 1-(2,5-dimethylphenyl)-N-(1H-indazole-4-sulfonyl)cyclopropane-1-carboxamide]

pEC50 [1]: > 5.52 | Maximum % activity (with co-corrector) (with co-corrector): +++ (≥350) | pEC50 [2]: > 5.52 | Emax (without co-corrector): > 150%
SMILES: COc1ccc(C2CCC2)cc1C1(C(=O)NS(=O)(=O)c2cccn3nccc23)CC1 [Example I-61, 1-(5-cyclobutyl-2-methoxyphenyl)-N-(pyrazolo[1,5-a]pyridine-4-sulfonyl)cyclopropane-1-carboxamide]

Maximum % activity (with co-corrector) [3]: +++ (≥350) | pEC50 [4]: > 5.52 | Emax [5]: > 150% | pEC50 [6]: > 5.52
SMILES: COc1cnc(OCC2CC2)c(C2(C(=O)NS(=O)(=O)c3cccc4nc(C)ccc34)CC2)c1 [Example GI-92, 1-[2-(cyclopropylmethoxy)-5-methoxypyridin-3-yl]-N-(2-methylquinoline-5-sulfonyl)cyclopropane-1-carboxamide]

Maximum % activity (with co-corrector) [3]: +++ (≥350) | pEC50 [4]: 5.00 to 5.52 | Emax [5]: > 150% | pEC50 [6]: 5.00 to 5.52
SMILES: COc1cc(C)c(C2(C(=O)NS(=O)(=O)c3cccc4ccccc34)CC2)cn1 [GII-22, 1-(6-methoxy-4-methylpyridin-3-yl)-N-(naphthalene-1-sulfonyl)cyclopropane-1-carboxamide]

Maximum % activity (with co-corrector) [3]: +++ (≥350) | pEC50 [4]: 5.00 to 5.52 | Emax [5]: > 150% | pEC50 [6]: 5.00 to 5.52
SMILES: CCc1cnc(OCCOC)c(C2(C(=O)NS(=O)(=O)c3cccc4nc(C)ccc34)CC2)c1 [GII-56, 1-[5-ethyl-2-(2-methoxyethoxy)pyridin-3-yl]-N-(2-methylquinoline-5-sulfonyl)cyclopropane-1-carboxamide]

pEC50 [1]: 5.00 to 5.52 | Maximum % activity (with co-corrector) (with co-corrector): +++ (≥350) | pEC50 [2]: 5.00 to 5.52 | Emax (without co-corrector): > 150%
SMILES: COc1ccc(C#N)cc1C1(C(=O)NS(=O)(=O)c2cccc3c2CCCN3)CC1 [Example III-100, 1-(5-cyano-2-methoxyphenyl)-N-(1,2,3,4-tetrahydroquinoline-5-sulfonyl)cyclopropane-1-carboxamide]

pEC50 [1]: 5.00 to 5.52 | Maximum % activity (with co-corrector) (with co-corrector): +++ (≥350) | pEC50 [2]: > 5.52 | Emax (without co-corrector): > 150%
SMILES: COc1cccc(C)c1C1(C(=O)NS(=O)(=O)c2cccc3ncccc23)CC1 [II-35]
